Source: patent publication US20230266302A1, “SYNTHESIS AND USE OF N-BENZYL SULFONAMIDES” (THE UNIVERSITY OF TULSA, priority 2020, published 2023)

Tests used:
Assay in all cases: ATP level assay (CellTiter-Glo), percent of control
Assay type in all cases: cell-based
SkBr3 (breast cancer) = settings: two hour incubation; for activity at 100 µM: Homo sapiens, SK-BR-3, 2 h, compound alone, control DMSO, read-out: POC (percent of control) SkBr3
Excerpt: (§1) In the present method, the method of using the available assays has been modified to measure the short-term effect of compounds of interest on ATP levels in the cells. […] In the modified method, the control and test cells are initially treated with the metabolic inhibitor for a period of about thirty minutes to about four hours. Typically, the treatment of the cells with the metabolic inhibitor is for one hour prior to adding the compound to be screened for anti-cancer properties. However, simultaneous treatment with the metabolic inhibitor and the compound being screened should provide satisfactory results. […] ATP synthesis in cells occurs over multiple biochemical pathways. These pathways are very responsive to metabolic inhibitors and/or changes in available nutrients. By incorporating a metabolic inhibitor which is known to impact certain pathways, the disclosed method provides for measurement of a compound's direct effects on the remaining metabolic pathways available for ATP synthesis in the cell.
(§2) Following treatment of the control and test cells with the metabolic inhibitor, the method calls for addition of the compound to be screened for anti-cancer properties to the cells. Following addition of the compound of interest, the assay is allowed to continue for about one hour to about four hours or depending on the luminescing agent up to eighteen hours. However, approximately 60 minutes will be sufficient to determine the ATP inhibiting effect of the compound to be screened on the cells. Following completion of the selected time period, the ATP level within the cell is determined. ATP levels can be determined by luminescence according to standard measuring procedures, i.e. the luminescence level of the assay from the living cells treated with the two component composition is compared to the luminescence level of the assay from the living cells without the two component composition, i.e., the control experiment. Thus, the ATP levels are determined without killing the cells during the incubation of the cells in the presence of the compound of interest. As a result, the measured reduction in ATP level corresponds directly to the inhibition of the metabolic pathways uninhibited by the metabolic blocker.
(§3) A wide variety of ATP luminescing detection reagents are available commercially. So long as the reagent produces a luminescence in the presence of ATP, the reagent will be suitable for use in the present method. Suitable reagents include but are not limited to any ATP dependent luciferase such as but not limited to firefly luciferase, other modified luciferase based reagents, i.e. luciferase derivatives. According to the rapid method for determining the anti-cancer activity of a compound, a sample of living cells is distributed across a number of testing wells. Typically, 96-well plates are used; however, the number of wells is not critical to the current method. When using a 96-well plate the number of living cells will commonly be about 20,000. The sample wells contain a cell growth medium to promote cell health and growth and an additive to prevent bacterial contamination of the wells. One common example of the cell growth medium is DMEM with 10% FBS as described above. One example of the additive to prevent bacterial contamination is a solution of penicillin G and streptomycin referred to commonly as Pen-Strep. The Pen-Strep solution typically contains 5000 units of penicillin G and 5000 micrograms of streptomycin. Thus, the rapid determination of anti-cancer compounds can be carried out using the following method. • The desired number of cells are distributed in a 96-well plate containing 100 μL DMEM plus 10% FBS with optional Pen-Strep. • After 24 hours, cells are treated with the compound of interest or a 5% solution of dimethyl sulfoxide (DMSO) in water as a control. • The time period for exposure to the compound of interest and the DMSO control will vary depending on the luminescing detection reagent. […]

MDA-MB (breast cancer) = settings: two hour incubation; for activity at 100 µM: 2 h, compound alone, control DMSO, read-out: POC (percent of control) MDA-MB
Excerpt: as §1, §2, §3

HDF (normal cells) = settings: two hour incubation; for activity at 100 µM: 2 h, compound alone, control DMSO, read-out: POC (percent of control) HDF
Excerpt: as §1, §2, §3

MCF7 (breast cancer) = settings: two hour incubation; for activity at 100 µM: Homo sapiens, MCF7, 2 h, compound alone, control DMSO, read-out: POC (percent of control) MCF7
Excerpt: as §1, §2, §3

[1] = system: BxPC3 (pancreatic cancer); settings: two hour incubation; for activity at 100 µM: Homo sapiens, BXPC-3, 2 h, compound alone, control DMSO, read-out: POC (percent of control) BxPC3
Excerpt: as §1, §2, §3

PC3 (prostate cancer) = settings: two hour incubation; for activity at 100 µM: 2 h, compound alone, control DMSO, read-out: POC (percent of control) PC3
Excerpt: as §1, §2, §3

NCI-H196 (lung cancer) = settings: two hour incubation; for activity at 100 µM: NCI-H196, 2 h, compound alone, control DMSO, read-out: POC (percent of control) NCI-H196
Excerpt: as §1, §2, §3

[2] = system: MCF10A (non-cancerous breast); settings: two hour incubation; for activity at 100 µM: Homo sapiens, MCF-10A, 2 h, compound alone, control DMSO, read-out: POC (percent of control) MCF10A
Excerpt: as §1, §2, §3

HeLa (cervical cancer) = settings: two hour incubation; for activity at 100 µM: Homo sapiens, HeLa, 2 h, compound alone, control DMSO, read-out: POC (percent of control) HeLa
Excerpt: as §1, §2, §3

T47D (breast cancer) = settings: two hour incubation; for activity at 100 µM: Homo sapiens, T47D, 2 h, compound alone, control DMSO, read-out: POC (percent of control) T47D
Excerpt: as §1, §2, §3

H293 (kidney cancer) = settings: two hour incubation; for activity at 100 µM: 2 h, compound alone, control DMSO, read-out: POC (percent of control) H293
Excerpt: as §1, §2, §3

[3] = compound 100 uM + 2DG (about 10-20 mM)
[4] = compound 100 uM + rotenone (approximately 1.25 μM)

SMILES	activity at 100 µM (SkBr3 (breast cancer)) [%]	POC (percent of control) SkBr3 (SkBr3 (breast cancer); [3])	POC (percent of control) SkBr3 (SkBr3 (breast cancer); [4])	activity at 100 µM (MDA-MB (breast cancer)) [%]	POC (percent of control) MDA-MB (MDA-MB (breast cancer); [3])	POC (percent of control) MDA-MB (MDA-MB (breast cancer); [4])	activity at 100 µM (HDF (normal cells)) [%]	POC (percent of control) HDF (HDF (normal cells); [3])	POC (percent of control) HDF (HDF (normal cells); [4])	activity at 100 µM (MCF7 (breast cancer)) [%]	POC (percent of control) MCF7 (MCF7 (breast cancer); [3])	POC (percent of control) MCF7 (MCF7 (breast cancer); [4])	activity at 100 µM [1] [%]	POC (percent of control) BxPC3 [1, 4]	activity at 100 µM (PC3 (prostate cancer)) [%]	POC (percent of control) PC3 (PC3 (prostate cancer); [3])	POC (percent of control) PC3 (PC3 (prostate cancer); [4])	activity at 100 µM (NCI-H196 (lung cancer)) [%]	POC (percent of control) NCI-H196 (NCI-H196 (lung cancer); [3])	POC (percent of control) NCI-H196 (NCI-H196 (lung cancer); [4])	further results
Cc1ccc(S(=O)(=O)NCc2cscn2)cc1 [Compound 17, 4-methyl-N-(1,3-thiazol-4-ylmethyl)benzenesulfonamide]	90.1	88.8% of control	95.4% of control	105	89.8% of control	98.1% of control	90.7	98% of control	84.1% of control	145	114.6% of control	90.6% of control	91.4	75.7% of control	113	93.7% of control	90.9% of control	96.8	103.8% of control	89.4% of control	POC (percent of control) BxPC3 [1, 3]: 101.4% of control; activity at 100 µM [2]: 92.4%; POC (percent of control) MCF10A [2, 3]: 97.1% of control; POC (percent of control) MCF10A [2, 4]: 91.6% of control; activity at 100 µM (HeLa (cervical cancer)): 90.3%; POC (percent of control) HeLa (HeLa (cervical cancer); [3]): 118.8% of control; POC (percent of control) HeLa (HeLa (cervical cancer); [4]): 110.3% of control; activity at 100 µM (T47D (breast cancer)): 83%; POC (percent of control) T47D (T47D (breast cancer); [3]): 89.1% of control; POC (percent of control) T47D (T47D (breast cancer); [4]): 104.6% of control; activity at 100 µM (H293 (kidney cancer)): 80.4%; POC (percent of control) H293 (H293 (kidney cancer); [3]): 85.8% of control; POC (percent of control) H293 (H293 (kidney cancer); [4]): 74.9% of control
CS(=O)(=O)NCc1c[nH]c2ccccc12 [Compound 26, N-(1H-indol-3-ylmethyl)methanesulfonamide]	109	95.7% of control	97.1% of control	90.2	87.6% of control	79.2% of control	106	91.1% of control	86.9% of control	114	95.9% of control	119.8% of control	99.1	88.8% of control	92.3	111.5% of control	89.6% of control	220	91.3% of control	80.8% of control	POC (percent of control) BxPC3 [1, 3]: 86.6% of control; activity at 100 µM [2]: 106%; POC (percent of control) MCF10A [2, 3]: 99.9% of control; POC (percent of control) MCF10A [2, 4]: 81% of control; activity at 100 µM (HeLa (cervical cancer)): 90.4%; POC (percent of control) HeLa (HeLa (cervical cancer); [3]): 106.9% of control; POC (percent of control) HeLa (HeLa (cervical cancer); [4]): 96.3% of control; activity at 100 µM (T47D (breast cancer)): 93.3%; POC (percent of control) T47D (T47D (breast cancer); [3]): 101% of control; POC (percent of control) T47D (T47D (breast cancer); [4]): 90.8% of control; activity at 100 µM (H293 (kidney cancer)): 110%; POC (percent of control) H293 (H293 (kidney cancer); [3]): 72.9% of control; POC (percent of control) H293 (H293 (kidney cancer); [4]): 72% of control
COc1ccc(S(=O)(=O)NCc2c[nH]c3ccccc23)cc1 [Compound 23, N-(1H-indol-3-ylmethyl)-4-methoxybenzenesulfonamide]	85.9	75.5% of control	87.7% of control	98.6	85.9% of control	83% of control	74.6	90.6% of control	119.9% of control	96.3	93.6% of control	121.1% of control	95.9	78.5% of control	77.3	92.9% of control	87.9% of control	93	83.5% of control	85.6% of control	activity at 100 µM [2]: 85%; POC (percent of control) MCF10A [2, 3]: 82.8% of control; POC (percent of control) MCF10A [2, 4]: 85.1% of control; activity at 100 µM (HeLa (cervical cancer)): 84.1%; POC (percent of control) HeLa (HeLa (cervical cancer); [3]): 86.9% of control; POC (percent of control) HeLa (HeLa (cervical cancer); [4]): 93.7% of control; activity at 100 µM (T47D (breast cancer)): 54%; POC (percent of control) T47D (T47D (breast cancer); [3]): 46.6% of control; POC (percent of control) T47D (T47D (breast cancer); [4]): 71.7% of control; activity at 100 µM (H293 (kidney cancer)): 92.1%; POC (percent of control) H293 (H293 (kidney cancer); [3]): 47.4% of control; POC (percent of control) H293 (H293 (kidney cancer); [4]): 65.3% of control
Cc1cccc2[nH]cc(CNS(=O)(=O)c3ccc(Cl)cc3)c12 [Compound 30, 4-chloro-N-[(4-methyl-1H-indol-3-yl)methyl]benzenesulfonamide]	64.1	41.3% of control	58.2% of control	38.6	41.5% of control	48.3% of control	28.2	28.4% of control	66.2% of control	37.4	11.3% of control	36% of control	15.8	45.7% of control	7.1	10.6% of control	21.7% of control	48	18.7% of control	18.4% of control	POC (percent of control) BxPC3 [1, 3]: 6.3% of control; activity at 100 µM [2]: 30%; POC (percent of control) MCF10A [2, 3]: 8.4% of control; POC (percent of control) MCF10A [2, 4]: 34.6% of control; activity at 100 µM (HeLa (cervical cancer)): 28.5%; POC (percent of control) HeLa (HeLa (cervical cancer); [3]): 17.8% of control; POC (percent of control) HeLa (HeLa (cervical cancer); [4]): 58.4% of control; activity at 100 µM (T47D (breast cancer)): 16.1%; POC (percent of control) T47D (T47D (breast cancer); [3]): 13.2% of control; POC (percent of control) T47D (T47D (breast cancer); [4]): 28% of control; activity at 100 µM (H293 (kidney cancer)): 14%; POC (percent of control) H293 (H293 (kidney cancer); [3]): 12.8% of control; POC (percent of control) H293 (H293 (kidney cancer); [4]): 9.5% of control
